Reference: ChEMBL document CHEMBL3734744, “Synthesis, 3D pharmacophore, QSAR and docking studies of novel quinazoline derivatives with nitric oxide release moiety as preferential COX-2 inhibitors” (Medchemcomm, 2015)

Key:
Rattus norvegicus [1] = experiment: Gastrointestinal toxicity in Wistar albino rat assessed as ulceration at 5 mg/kg/day, po administered for 3 days measured after 2 hrs post last dose by haematoxylin/eosin staining-based microscopic analysis; assay type: organism-based; details: in vivo
Rattus norvegicus [2] = experiment: Gastrointestinal toxicity in Wistar albino rat assessed as ulcer index at 5 mg/kg/day, po administered for 3 days measured after 2 hrs post last dose; assay type: organism-based; details: in vivo
Rattus norvegicus [3] = experiment: Gastrointestinal toxicity in Wistar albino rat assessed as irregular mucosa at 5 mg/kg/day, po administered for 3 days measured after 2 hrs post last dose by haematoxylin/eosin staining-based microscopic analysis; assay type: organism-based; details: in vivo
Rattus norvegicus [4] = experiment: Antiinflammatory activity in Sprague-Dawley rat assessed as inhibition of carrageenan-induced paw edema at 80 mg/kg, po administered 30 mins prior to carrageenan challenge measured at 2 hrs by plethysmometer; assay type: functional
Rattus norvegicus [5] = experiment: Antiinflammatory activity in Sprague-Dawley rat assessed as inhibition of carrageenan-induced paw edema at 80 mg/kg, po administered 30 mins prior to carrageenan challenge measured at 3 hrs by plethysmometer; assay type: functional
[6] = target: T1, Prostaglandin G/H synthase 2 (Ovis aries, UniProt P79208); experiment: Inhibition of ovine COX2 after 5 mins by enzyme immuno assay
T1 sequence (P79208 whole entry): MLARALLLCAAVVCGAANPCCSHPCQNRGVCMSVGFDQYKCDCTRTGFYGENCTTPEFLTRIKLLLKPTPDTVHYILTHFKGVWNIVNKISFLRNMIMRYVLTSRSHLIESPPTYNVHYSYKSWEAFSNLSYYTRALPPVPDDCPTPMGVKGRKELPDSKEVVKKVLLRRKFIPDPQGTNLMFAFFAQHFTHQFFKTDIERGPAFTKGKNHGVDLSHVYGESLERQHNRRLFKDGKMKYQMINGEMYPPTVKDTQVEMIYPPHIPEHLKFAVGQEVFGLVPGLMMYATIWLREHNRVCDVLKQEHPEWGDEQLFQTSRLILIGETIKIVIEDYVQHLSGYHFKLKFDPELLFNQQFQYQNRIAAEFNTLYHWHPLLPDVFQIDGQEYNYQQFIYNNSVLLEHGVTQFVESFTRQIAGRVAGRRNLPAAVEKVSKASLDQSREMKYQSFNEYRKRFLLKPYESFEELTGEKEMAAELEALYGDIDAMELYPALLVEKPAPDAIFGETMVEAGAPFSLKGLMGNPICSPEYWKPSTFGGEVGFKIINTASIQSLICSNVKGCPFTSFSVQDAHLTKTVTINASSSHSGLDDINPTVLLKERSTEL

Ovis aries = organism: Ovis aries; experiment: Selectivity index, ratio of IC50 for ovine COX1 to IC50 for ovine COX2
[7] = target: T2, Prostaglandin G/H synthase 1 (Ovis aries, UniProt P05979); experiment: Inhibition of ovine COX1 after 5 mins by enzyme immuno assay
T2 sequence (P05979 whole entry): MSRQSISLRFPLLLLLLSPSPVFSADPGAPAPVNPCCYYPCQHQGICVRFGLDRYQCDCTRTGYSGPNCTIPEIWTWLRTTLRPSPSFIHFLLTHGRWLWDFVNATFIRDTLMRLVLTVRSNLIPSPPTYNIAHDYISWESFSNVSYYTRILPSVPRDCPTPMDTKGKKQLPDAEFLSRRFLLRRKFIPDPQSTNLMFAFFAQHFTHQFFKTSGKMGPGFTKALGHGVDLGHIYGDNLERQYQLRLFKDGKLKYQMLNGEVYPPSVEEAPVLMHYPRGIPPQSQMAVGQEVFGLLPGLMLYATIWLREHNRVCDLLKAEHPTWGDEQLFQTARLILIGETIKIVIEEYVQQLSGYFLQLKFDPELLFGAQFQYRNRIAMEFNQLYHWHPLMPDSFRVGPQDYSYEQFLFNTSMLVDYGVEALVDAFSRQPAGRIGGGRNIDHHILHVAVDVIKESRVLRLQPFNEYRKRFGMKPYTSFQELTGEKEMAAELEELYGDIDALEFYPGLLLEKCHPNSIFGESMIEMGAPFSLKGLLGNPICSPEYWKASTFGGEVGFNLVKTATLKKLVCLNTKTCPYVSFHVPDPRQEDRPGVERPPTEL

Rattus norvegicus [8] = experiment: Antiinflammatory activity in Sprague-Dawley rat assessed as inhibition of carrageenan-induced paw edema at 80 mg/kg, po administered 30 mins prior to carrageenan challenge measured at 1 hr by plethysmometer; assay type: functional
Rattus norvegicus [9] = experiment: Antiinflammatory activity in Sprague-Dawley rat assessed as inhibition of carrageenan-induced paw edema at 80 mg/kg, po administered 30 mins prior to carrageenan challenge measured at 3 hrs by plethysmometer relative to meloxicam; assay type: functional
Rattus norvegicus [10] = experiment: Gastrointestinal toxicity in Wistar albino rat assessed as ulceration at 10 mg/kg/day, po administered for 3 days measured after 2 hrs post last dose by haematoxylin/eosin staining-based microscopic analysis; assay type: organism-based; details: in vivo
Rattus norvegicus [11] = experiment: Gastrointestinal toxicity in Wistar albino rat assessed as ulcer index at 10 mg/kg/day, po administered for 3 days measured after 2 hrs post last dose; assay type: organism-based; details: in vivo
Serum = experiment: Induction of nitric oxide release in rat serum by Griess assay; assay type: functional
Rattus norvegicus [12] = experiment: Gastrointestinal toxicity in Wistar albino rat assessed as mild erosion at 10 mg/kg/day, po administered for 3 days measured after 2 hrs post last dose by haematoxylin/eosin staining-based microscopic analysis; assay type: organism-based; details: in vivo
Rattus norvegicus [13] = experiment: Gastrointestinal toxicity in Wistar albino rat assessed as intact mucosa at 10 mg/kg/day, po administered for 3 days measured after 2 hrs post last dose by haematoxylin/eosin staining-based microscopic analysis; assay type: organism-based; details: in vivo

| IC50 [6] | Ratio IC50 (Ovis aries) | IC50 [7] | SMILES | Activity (Rattus norvegicus [1]) | UI (Rattus norvegicus [2]) | Activity (Rattus norvegicus [3]) | inhibition in vivo at 80 mg/kg (Rattus norvegicus [4]) | inhibition in vivo at 80 mg/kg (Rattus norvegicus [5]) | inhibition in vivo at 80 mg/kg (Rattus norvegicus [8]) | inhibition in vivo at 80 mg/kg (Rattus norvegicus [9]) | Activity (Rattus norvegicus [10]) | UI (Rattus norvegicus [11]) | Activity (Serum) | Activity (Rattus norvegicus [12]) | Activity (Rattus norvegicus [13]) |
| --- | --- | --- | --- | --- | --- | --- | --- | --- | --- | --- | --- | --- | --- | --- | --- |
|  |  |  | COc1ccc2c(c1)c(CC(=O)O)c(C)n2C(=O)c1ccc(Cl)cc1 [INDOMETHACIN] | Toxic | 1.8 | Toxic |  |  |  |  |  |  |  |  |  |
| 4.41 µM | 5.16 | 22.8 µM | CC(=O)Nc1ccc(S(=O)(=O)Nn2c(C)nc3ccccc3c2=O)cc1 |  |  |  | 37.4% | 59.2% | 20.8% | 95.7% |  |  |  |  |  |
| 42.1 µM | 2.41 | 98.6 µM | O=c1c2ccccc2nc(CO[N+](=O)[O-])n1NS(=O)(=O)c1ccccc1 |  |  |  | 11.6% | 34% | 2.4% | 55% | Non-toxic | 0.5 | 16.73 µmol/L |  |  |
| 3.59 µM | 6.72 | 24.1 µM | CC(=O)Nc1ccc(S(=O)(=O)Nn2c(CO[N+](=O)[O-])nc3ccccc3c2=O)cc1 |  |  |  | 40.4% | 64.8% | 15.2% | > 100% | Toxic | 1.3 | 7.9 µmol/L |  |  |
| 5 µM | 4.74 | 23.8 µM | Cc1nc2ccccc2c(=O)n1NC(=O)NC1CCCCC1 |  |  |  | 41.9% | 54.8% | 12% | 88.6% |  |  |  |  |  |
| 5.75 µM | 5.67 | 32.7 µM | Cc1ccc(S(=O)(=O)Nn2c(C)nc3ccccc3c2=O)cc1 |  |  |  | 24.2% | 51.9% | 3.2% | 83.9% |  |  |  |  |  |
| 12.5 µM | 3.57 | 44.6 µM | CC(C)(C)NC(=O)Nn1c(CO[N+](=O)[O-])nc2ccccc2c1=O |  |  |  | 14.1% | 43.7% | 6.4% | 70.6% |  | 0.9 | 10.76 µmol/L | Toxic |  |
| 3.67 µM | 5.13 | 18.9 µM | Cc1nc2ccccc2c(=O)n1NC(=S)Nc1ccccc1 |  |  |  | 42.9% | 61.9% | 14.4% | 100% |  |  |  |  |  |
| 8.58 µM | 3.5 | 30.1 µM | Cc1nc2ccccc2c(=O)n1NS(=O)(=O)c1ccccc1 |  |  |  | 22.2% | 47.8% | 5.6% | 77.2% |  |  |  |  |  |
| 5.93 µM | 4.11 | 24.4 µM | O=C(Nc1ccccc1)Nn1c(CO[N+](=O)[O-])nc2ccccc2c1=O |  |  |  | 25.8% | 51.3% | 6.4% | 82.9% | Non-toxic | 0.6 | 22.8 µmol/L |  |  |
| 11.7 µM | 3.32 | 38.8 µM | Cc1ccc(S(=O)(=O)Nn2c(CO[N+](=O)[O-])nc3ccccc3c2=O)cc1 |  |  |  | 15.7% | 44.3% | 6.4% | 71.6% | Toxic | 1 | 10.4 µmol/L |  |  |
| 6.53 µM | 5.28 | 34.5 µM | Cc1nc2ccccc2c(=O)n1NC(=O)NC(C)(C)C |  |  |  | 29.8% | 51% | 10.4% | 82.5% |  |  |  |  |  |
| 6.86 µM | 5.03 | 34.6 µM | O=C(NC1CCCCC1)Nn1c(CO[N+](=O)[O-])nc2ccccc2c1=O |  |  |  | 18.7% | 49.9% | 8% | 80.6% |  | 0.4 | 28.53 µmol/L |  | Non-toxic |
|  |  |  | Cc1cnc(NC(=O)C2=C(O)c3ccccc3S(=O)(=O)N2C)s1 [MELOXICAM] |  |  |  | 43.4% | 61.9% | 20.8% |  | Toxic | 0.6 |  |  |  |
